Measured values published in patent publication US20030104507A1, “Method for detection of ATP” (priority 2001, published 2003).

Tested on: LucPpe2m146
Assay: Duration of luminescence (signal stability) and effects of media and sera, DTAB, ± pyrophosphate
Format: biochemical, Photuris pennsylvanica
Procedure: In some embodiments, the compositions of the invention were added to intact cells to lyse them, and then ATP detected. In other embodiments, conditioned culture media were themselves assayed for ATP. However, the various components of media, such as buffers, sugars, amino acids, pH indicators, salts, etc., as well as the various factors found in serum (equine, bovine, etc.) may inhibit luciferase activity.
The luciferase-luciferin reaction was initiated by combining 100 μl of the reagent composition composition with 100 μl cell media with serum, varying final concentrations of DTAB (as indicated below in Table Q) and 1.0 μM ATP was added to each reaction plus or minus 10 μM sodium pyrophosphate in wells of a 96-well microtiter luminometer plate; each experimental condition was prepared in triplicate. At various times after initiating the reaction, rlu values were recorded using an Orion microplate luminometer (Berthold Detection Systems; Pforzheim, Germany).

Question: How did the “Average Relative Light Units” value (0.50% DTAB, DMEM + 10% FBS + ATP, 0 min) turn out when `CCCCCCCCCCCC[N+](C)(C)C.[Br-]` [DTAB, dodecyltrimethylammonium bromide] was run?
Answer: 204771 relative light units

Question: And the “Average Relative Light Units” value (0.50% DTAB, DMEM + 10% FBS + ATP, 10 min)?
Answer: 223493 relative light units

Question: And the “Average Relative Light Units” value (0.50% DTAB, DMEM + 10% FBS + ATP, 30 min)?
Answer: 187757 relative light units

Question: And the “Average Relative Light Units” value (0.50% DTAB, DMEM + 10% FBS + ATP, 65 min)?
Answer: 146766 relative light units

Question: What about the “Average Relative Light Units” value (0.50% DTAB, DMEM + 10% FBS + ATP, 120 min) of the same molecule?
Answer: 104150 relative light units

Question: What about the “Average Relative Light Units” value (0.50% DTAB, DMEM + 10% FBS + ATP, 180 min) of the same molecule?
Answer: 72609 relative light units

Question: And the “Average Relative Light Units” value (0.50% DTAB, DMEM + 10% FBS + ATP, 325 min)?
Answer: 32307 relative light units

Question: What about the “Average Relative Light Units” value (0.50% DTAB, F12/DME + 10% FBS + ATP, 0 min) of the same molecule?
Answer: 13467 relative light units

Question: And the “Average Relative Light Units” value (0.50% DTAB, F12/DME + 10% FBS + ATP, 10 min)?
Answer: 13311 relative light units

Question: And the “Average Relative Light Units” value (0.50% DTAB, F12/DME + 10% FBS + ATP, 30 min)?
Answer: 11348 relative light units

Question: What about the “Average Relative Light Units” value (0.50% DTAB, F12/DME + 10% FBS + ATP, 65 min) of the same molecule?
Answer: 9953 relative light units

Question: What about the “Average Relative Light Units” value (0.50% DTAB, F12/DME + 10% FBS + ATP, 120 min) of the same molecule?
Answer: 8127 relative light units

Question: And the “Average Relative Light Units” value (0.50% DTAB, F12/DME + 10% FBS + ATP, 180 min)?
Answer: 6538 relative light units

Question: What about the “Average Relative Light Units” value (0.50% DTAB, F12/DME + 10% FBS + ATP, 325 min) of the same molecule?
Answer: 3793 relative light units

Question: And the “Average Relative Light Units” value (0.50% DTAB, F12/DME + 10% HS + ATP, 0 min)?
Answer: 88405 relative light units

Question: What about the “Average Relative Light Units” value (0.50% DTAB, F12/DME + 10% HS + ATP, 10 min) of the same molecule?
Answer: 82645 relative light units

Question: What about the “Average Relative Light Units” value (0.50% DTAB, F12/DME + 10% HS + ATP, 30 min) of the same molecule?
Answer: 70746 relative light units

Question: And the “Average Relative Light Units” value (0.50% DTAB, F12/DME + 10% HS + ATP, 65 min)?
Answer: 58749 relative light units

Question: And the “Average Relative Light Units” value (0.50% DTAB, F12/DME + 10% HS + ATP, 120 min)?
Answer: 44677 relative light units

Question: What about the “Average Relative Light Units” value (0.50% DTAB, F12/DME + 10% HS + ATP, 180 min) of the same molecule?
Answer: 33353 relative light units

Question: What about the “Average Relative Light Units” value (0.50% DTAB, F12/DME + 10% HS + ATP, 325 min) of the same molecule?
Answer: 17414 relative light units

Question: And the “Average Relative Light Units” value (0.50% DTAB, RPMI + 10% FBS + ATP, 0 min)?
Answer: 44179 relative light units

Question: What about the “Average Relative Light Units” value (0.50% DTAB, RPMI + 10% FBS + ATP, 10 min) of the same molecule?
Answer: 43664 relative light units

Question: And the “Average Relative Light Units” value (0.50% DTAB, RPMI + 10% FBS + ATP, 30 min)?
Answer: 35909 relative light units

Question: And the “Average Relative Light Units” value (0.50% DTAB, RPMI + 10% FBS + ATP, 65 min)?
Answer: 26501 relative light units

Question: What about the “Average Relative Light Units” value (0.50% DTAB, RPMI + 10% FBS + ATP, 120 min) of the same molecule?
Answer: 16951 relative light units

Question: And the “Average Relative Light Units” value (0.50% DTAB, RPMI + 10% FBS + ATP, 180 min)?
Answer: 10153 relative light units

Question: What about the “Average Relative Light Units” value (0.50% DTAB, RPMI + 10% FBS + ATP, 325 min) of the same molecule?
Answer: 3268 relative light units

Question: And the “Average Relative Light Units” value (0.55% DTAB, DMEM + 10% FBS + ATP, 0 min)?
Answer: 52107 relative light units

Question: And the “Average Relative Light Units” value (0.55% DTAB, DMEM + 10% FBS + ATP, 10 min)?
Answer: 59799 relative light units

Question: What about the “Average Relative Light Units” value (0.55% DTAB, DMEM + 10% FBS + ATP, 30 min) of the same molecule?
Answer: 51285 relative light units

Question: What about the “Average Relative Light Units” value (0.55% DTAB, DMEM + 10% FBS + ATP, 65 min) of the same molecule?
Answer: 42155 relative light units

Question: And the “Average Relative Light Units” value (0.55% DTAB, DMEM + 10% FBS + ATP, 120 min)?
Answer: 32891 relative light units

Question: And the “Average Relative Light Units” value (0.55% DTAB, DMEM + 10% FBS + ATP, 180 min)?
Answer: 24137 relative light units

Question: What about the “Average Relative Light Units” value (0.55% DTAB, DMEM + 10% FBS + ATP, 325 min) of the same molecule?
Answer: 12031 relative light units

Question: And the “Average Relative Light Units” value (0.55% DTAB, F12/DME + 10% FBS + ATP, 0 min)?
Answer: 6847 relative light units

Question: What about the “Average Relative Light Units” value (0.55% DTAB, F12/DME + 10% FBS + ATP, 10 min) of the same molecule?
Answer: 6952 relative light units

Question: What about the “Average Relative Light Units” value (0.55% DTAB, F12/DME + 10% FBS + ATP, 30 min) of the same molecule?
Answer: 6013 relative light units

Question: And the “Average Relative Light Units” value (0.55% DTAB, F12/DME + 10% FBS + ATP, 65 min)?
Answer: 5581 relative light units

Question: And the “Average Relative Light Units” value (0.55% DTAB, F12/DME + 10% FBS + ATP, 120 min)?
Answer: 4891 relative light units

Question: And the “Average Relative Light Units” value (0.55% DTAB, F12/DME + 10% FBS + ATP, 180 min)?
Answer: 4329 relative light units

Question: And the “Average Relative Light Units” value (0.55% DTAB, F12/DME + 10% FBS + ATP, 325 min)?
Answer: 3207 relative light units

Question: What about the “Average Relative Light Units” value (0.55% DTAB, F12/DME + 10% HS + ATP, 0 min) of the same molecule?
Answer: 36615 relative light units

Question: What about the “Average Relative Light Units” value (0.55% DTAB, F12/DME + 10% HS + ATP, 10 min) of the same molecule?
Answer: 36669 relative light units

Question: What about the “Average Relative Light Units” value (0.55% DTAB, F12/DME + 10% HS + ATP, 30 min) of the same molecule?
Answer: 31348 relative light units

Question: And the “Average Relative Light Units” value (0.55% DTAB, F12/DME + 10% HS + ATP, 65 min)?
Answer: 27979 relative light units

Question: What about the “Average Relative Light Units” value (0.55% DTAB, F12/DME + 10% HS + ATP, 120 min) of the same molecule?
Answer: 23778 relative light units

Question: And the “Average Relative Light Units” value (0.55% DTAB, F12/DME + 10% HS + ATP, 180 min)?
Answer: 19955 relative light units

Question: And the “Average Relative Light Units” value (0.55% DTAB, F12/DME + 10% HS + ATP, 325 min)?
Answer: 13539 relative light units

Question: And the “Average Relative Light Units” value (0.55% DTAB, RPMI + 10% FBS + ATP, 0 min)?
Answer: 21388 relative light units

Question: And the “Average Relative Light Units” value (0.55% DTAB, RPMI + 10% FBS + ATP, 10 min)?
Answer: 22863 relative light units

Question: And the “Average Relative Light Units” value (0.55% DTAB, RPMI + 10% FBS + ATP, 30 min)?
Answer: 19631 relative light units

Question: And the “Average Relative Light Units” value (0.55% DTAB, RPMI + 10% FBS + ATP, 65 min)?
Answer: 16848 relative light units

Question: What about the “Average Relative Light Units” value (0.55% DTAB, RPMI + 10% FBS + ATP, 120 min) of the same molecule?
Answer: 12968 relative light units

Question: And the “Average Relative Light Units” value (0.55% DTAB, RPMI + 10% FBS + ATP, 180 min)?
Answer: 9661 relative light units

Question: And the “Average Relative Light Units” value (0.55% DTAB, RPMI + 10% FBS + ATP, 325 min)?
Answer: 5080 relative light units
